Experimental data as given in patent US20080234340A1, “Synthesis and characterization of polymorph form II of 4-(2-(4,4-dimethyl-2-oxooxazolidin-3-YL)thiazol-4-YL)benzonitrile” (Wyeth, priority 2007, published 2008).

Key:
[1] = Hygroscopicity (ability to absorb water/moisture from the air); type: physicochemical; details: normal, atmospheric conditions
Description: One of skill in the art would readily be able to measure the hygroscopicity of Form II using techniques known in the art including, without limitation, dynamic vapor sorption (DVS) at relative humidities ranging from 0 to 100%. This decreased hygroscopic property of Form II thereby permits longer shelf life and storage of the solid compound in comparison to Form I.

[2] = Solubility in solvent at room temperature, centrifuged after 24 hours, supernatant assayed; type: physicochemical
Procedure: In another embodiment, the solvent is 2% Tween® 80 reagent in water, wherein Tween® 80 is a polyoxyethylene (20) sorbitan monooleate. One of skill in the art would readily be able to measure the solubility of Form II using techniques known in the art. Typically, the solubility was measured by adding Form II to a solvent at room temperature, centrifuging the solution after 24 hours, and assaying the supernatant. This increased solubility is observed when Form II is immersed in water.
In this example, the solubility of polymorph Form II of 4-(2-(4,4-dimethyl-2-oxooxazolidin-3-yl)thiazol-4-yl)benzonitrile in water is measured.

[3] = biological target: T1, progesterone receptor (PR) (Homo sapiens, UniProt P06401); assay: PR whole cell binding in T47D cells with 3H-progesterone as labeled ligand; details: live, intact T47D cells; 3H-progesterone labeled ligand
T1 construct: in live, intact (whole) cells using the human breast carcinoma T47D cell line; endogenous in cells; host or cells: T47D human breast carcinoma cells
T1 sequence (P06401 1-933): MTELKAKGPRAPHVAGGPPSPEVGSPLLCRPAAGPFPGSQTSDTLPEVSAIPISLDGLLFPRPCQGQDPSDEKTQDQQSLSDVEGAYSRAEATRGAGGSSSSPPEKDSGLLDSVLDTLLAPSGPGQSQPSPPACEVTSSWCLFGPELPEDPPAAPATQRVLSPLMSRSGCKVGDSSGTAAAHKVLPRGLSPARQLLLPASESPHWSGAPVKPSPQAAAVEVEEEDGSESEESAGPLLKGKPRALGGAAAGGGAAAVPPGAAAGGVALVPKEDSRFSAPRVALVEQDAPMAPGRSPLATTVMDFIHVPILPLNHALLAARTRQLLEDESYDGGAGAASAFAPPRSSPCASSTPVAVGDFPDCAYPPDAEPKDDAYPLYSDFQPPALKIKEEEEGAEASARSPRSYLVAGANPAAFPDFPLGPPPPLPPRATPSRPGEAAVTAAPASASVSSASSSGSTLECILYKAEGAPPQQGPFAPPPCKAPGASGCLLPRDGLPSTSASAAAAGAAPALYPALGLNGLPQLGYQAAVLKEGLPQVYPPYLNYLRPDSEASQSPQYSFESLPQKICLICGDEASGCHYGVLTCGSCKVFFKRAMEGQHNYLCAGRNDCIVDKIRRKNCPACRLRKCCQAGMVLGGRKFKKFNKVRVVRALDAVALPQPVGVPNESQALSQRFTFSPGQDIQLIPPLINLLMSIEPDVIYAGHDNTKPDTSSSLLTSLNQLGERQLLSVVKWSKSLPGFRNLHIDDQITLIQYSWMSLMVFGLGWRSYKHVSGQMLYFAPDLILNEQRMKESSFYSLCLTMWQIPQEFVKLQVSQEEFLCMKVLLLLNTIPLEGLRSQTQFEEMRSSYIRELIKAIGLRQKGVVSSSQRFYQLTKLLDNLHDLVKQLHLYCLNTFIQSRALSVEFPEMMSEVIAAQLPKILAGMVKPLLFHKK
Description: (§1) The compound 4-(2-(4,4-dimethyl-2-oxooxazolidin-3-yl)thiazol-4-yl)benzonitrile has shown activity for modulating PR activity in assays to identify progestins or antiprogestins by (a) determining effect on alkaline phosphatase activity in T47D cells or (b) evaluating the progesterone receptor (PR) binding activity in live, intact (whole) cells using the human breast carcinoma T47D cell line and ^3H-progesterone as the labeled ligand (data presented in Table below).

[4] = biological target: T1, progesterone receptor (PR); assay: T47D alkaline phosphatase activity assay to identify progestins or antiprogestins; type: cell-based; details: T47D cells
Description: as §1

Hygroscopicity compared with Form I [1]	Solubility compared with Form I ([2]; solvents such as water and hydrophilic non-ionic surfactants (2% Tween 80 in water), room temperature, 24 hours)	Solubility in water relative to Form I ([2]; water)	Ki [3]	IC50 [4]	Structure (SMILES)
less hygroscopic than Form I	more soluble	4 times			CC1(C)COC(=O)N1c1nc(-c2ccc(C#N)cc2)cs1 [Form II, 4-(2-(4,4-dimethyl-2-oxooxazolidin-3-yl)thiazol-4-yl)benzonitrile]
			4.9 nM	3.1 nM	CC1(C)COC(=O)N1c1nc(-c2ccc(C#N)cc2)cs1 [4-(2-(4,4-dimethyl-2-oxooxazolidin-3-yl)thiazol-4-yl)benzonitrile]
